Assay [1] has as its system Human immunodeficiency virus 1. The experiment in a line: Antiviral activity against HIV1 RF in human CEM-SS cells assessed as cell protection from infection at 2 to 5 uM after 7 days relative to control. It counts as functional.
The subject of assay [2] is P388. The experiment in a line: Cytotoxicity against mouse P388 cells. It counts as functional. Particulars: read-out: ED50 (the source's name).
Assay [3] in a line: Inhibition of [20-3H]phorbol 12,13-dibutyrate binding to protein kinase C.
The subject of assay [4] is CEM-SS. The experiment in a line: Cytotoxicity against human CEM-SS cells assessed as inhibition of cell metabolic activity after 7 days by XTT assay. Particulars: 168 h. It counts as functional, cell-based.
The test system of assay [5] is Human immunodeficiency virus 1. Briefly: Antiviral activity against HIV1 RF in human CEM-SS cells assessed as cell protection from infection after 7 days. Format: functional, organism-based. Conditions: Human immunodeficiency virus 1, CEM-SS, 168 h.

Molecules are shown by their SMILES. Converted amounts (≈) assume the structure as drawn.

For orientation: Ki means the dissociation constant of the complex between target and ligand, obtained from inhibition or displacement. One may read the IC50 as the concentration that inhibits the measured activity by half. For `CCC/C=C/C=C\C(=O)O[C@@H]1[C@@H](C)[C@]2(O)[C@@H]3C=C(C)C(=O)[C@@H]3CC(CO)=C[C@H]2[C@@H]2C(C)(C)[C@]12OC(C)=O` [PEDILSTATIN], the Activity in assay [1] is 80%. For the same molecule, the EC50 in assay [2] came out at 0.28 µg/mL (≈ 0.546 µM); in assay [5] it was 1030 nM. The molecule further returned a Ki in assay [3] of 620 nM. In addition, in assay [4], the IC50 stood at 13300 nM.

These data come from ChEMBL document CHEMBL1150629, “Isolation and structure of pedilstatin from a republic of maldives Pedilanthus sp” (J Nat Prod, 2002).
